Results from ChEMBL document CHEMBL1158406, “Design of novel quinazoline derivatives and related analogues as potent and selective ALK5 inhibitors” (Bioorg Med Chem Lett, 2009).

Legend:
[1] = target: T1, TGF-beta receptor type-1 (Homo sapiens, UniProt P36897); assay: Inhibition of TGF-beta-induced ALK5 in human HepG2 cells by luciferase assay; format: cell-based
T1 sequence (P36897 whole entry): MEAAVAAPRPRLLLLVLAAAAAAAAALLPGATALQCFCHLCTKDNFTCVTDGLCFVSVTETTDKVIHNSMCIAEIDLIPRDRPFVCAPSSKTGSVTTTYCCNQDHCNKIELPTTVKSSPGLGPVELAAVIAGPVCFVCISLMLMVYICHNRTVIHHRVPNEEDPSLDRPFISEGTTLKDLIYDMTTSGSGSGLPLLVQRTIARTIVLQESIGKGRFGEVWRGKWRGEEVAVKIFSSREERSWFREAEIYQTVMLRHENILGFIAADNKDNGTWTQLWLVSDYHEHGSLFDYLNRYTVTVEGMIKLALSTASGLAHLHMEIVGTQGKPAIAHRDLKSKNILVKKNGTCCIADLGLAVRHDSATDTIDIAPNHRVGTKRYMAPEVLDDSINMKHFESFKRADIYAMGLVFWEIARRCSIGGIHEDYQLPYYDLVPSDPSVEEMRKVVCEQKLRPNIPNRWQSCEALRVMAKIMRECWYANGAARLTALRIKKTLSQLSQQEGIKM

[2] = target: T1, TGF-beta receptor type-1; assay: Inhibition of human ALK5 kinase expressed in Sf9 cells
[3] = target: Mitogen-activated protein kinase 14 (Homo sapiens, UniProt Q16539); assay: Inhibition of GST-fused p38alpha
Sequence of Mitogen-activated protein kinase 14 (Q16539 whole entry, the tested form may be a part): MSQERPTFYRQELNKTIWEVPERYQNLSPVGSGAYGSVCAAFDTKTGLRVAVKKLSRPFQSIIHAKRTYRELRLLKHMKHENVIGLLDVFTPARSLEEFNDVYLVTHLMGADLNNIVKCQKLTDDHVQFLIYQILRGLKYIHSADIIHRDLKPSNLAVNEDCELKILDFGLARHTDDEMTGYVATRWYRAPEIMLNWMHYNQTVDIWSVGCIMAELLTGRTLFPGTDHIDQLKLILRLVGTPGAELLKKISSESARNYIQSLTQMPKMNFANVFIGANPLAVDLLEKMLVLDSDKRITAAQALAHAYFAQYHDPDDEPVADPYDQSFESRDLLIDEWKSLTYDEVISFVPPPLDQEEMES

[4] = Bioavailability in rat at 5 mg/kg, po; format: ADME, organism-based; conditions: in vivo
[5] = system: Rattus norvegicus; assay: Inhibition of dimethylnitreosamine-induced collagen IA1 mRNA expression in rat liver at 5 mg/kg, po bid; format: functional
[6] = system: Rattus norvegicus; assay: Inhibition of dimethylnitreosamine-induced collagen IA1 mRNA expression in rat liver at 10 mg/kg, po bid; format: functional
[7] = AUC in rat at 5 mg/kg, po; format: ADME, organism-based; design: dose 5 mg/kg, route oral; conditions: plasma

In the case of `Cc1cc(Nc2nc(-c3cccc(C)n3)nc3ccccc23)ccn1`, the IC50 [1] is reported as 1020 nM, the IC50 [2] is reported as 199 nM and the IC50 [3] is reported as > 10000 nM.

For `Cc1cccc(-c2nc(C)cc(Nc3ccncc3)n2)n1`, the IC50 [1] was 745 nM and the IC50 [2] was 93 nM.

In the case of `Cc1cccc(-c2nc(Nc3ccc4[nH]nnc4c3)c3ccccc3n2)n1`, the IC50 [1] is reported as > 5000 nM, the IC50 [2] is reported as 3720 nM and the IC50 [3] is reported as > 10000 nM.

`Cc1cccc(-c2nc(Nc3ccncc3)c3sccc3n2)n1` gave an IC50 [1] of 60 nM and an IC50 [2] of 22 nM.

With `Cc1cccc(-c2nc(Nc3cccc(C(N)=O)c3)c3ccccc3n2)n1` the IC50 [1] was 545 nM, the IC50 [2] was 263 nM and the IC50 [3] was > 10000 nM.

`c1ccc(-c2nc(Nc3ccncc3)c3ccccc3n2)cc1` showed an IC50 [1] of 2470 nM, an IC50 [2] of 194 nM and an IC50 [3] of 1270 nM.

For `Clc1cccc(-c2nc(Nc3ccncc3)c3ccccc3n2)c1`, the IC50 [1] was 1610 nM, the IC50 [2] was 49 nM and the IC50 [3] was > 15000 nM.

For `Cc1cccc(-c2nc(Nc3ccc4ncsc4c3)c3ccccc3n2)n1`, the IC50 [1] was > 5000 nM, the IC50 [2] was 646 nM and the IC50 [3] was > 10000 nM.

In the case of `Cc1cccc(-c2nc(Nc3ccc4c(cnn4C)c3)c3ccccc3n2)n1`, the IC50 [1] is reported as 794 nM, the IC50 [2] is reported as 588 nM and the IC50 [3] is reported as > 10000 nM.

With `Cc1csc(-c2nc(Nc3ccncc3)c3ccccc3n2)n1` the IC50 [1] was 342 nM, the IC50 [2] was 20 nM and the IC50 [3] was > 15000 nM.

`Cc1cccc(-c2nc(Nc3ccncc3)c3ccccc3n2)n1` gave an IC50 [1] of 95 nM, an IC50 [2] of 25 nM and a bioavailability [4] of 40%. The inhibition in vivo at 5 mg/kg [5] was 66%, the inhibition in vivo at 10 mg/kg [6] was 73% and the AUC [7] was 524 ng·h/mL. It also gave an IC50 [3] of 6720 nM.

With `Cc1cccc(-c2nc(Nc3ccncn3)c3ccccc3n2)n1` the IC50 [1] was 60 nM, the IC50 [2] was 40 nM and the IC50 [3] was > 10000 nM.

In the case of `Cc1cccc(-c2nc(Nc3ccc4[nH]ncc4c3)c3ccccc3n2)n1`, the IC50 [1] is reported as 90 nM, the IC50 [2] is reported as 25 nM and the IC50 [3] is reported as > 10000 nM.

For `Cc1cccc(-c2nc(Nc3ccncc3)c3c(C)csc3n2)n1`, the IC50 [1] was 318 nM and the IC50 [2] was 16 nM.
